According to patent US9771560B2, “High-throughput image-based chemical screening in zebrafish blastomere cell culture” (CHILDREN'S MEDICAL CENTER CORPORATION, priority 2012, dated 2017):
“Also recorded” adds a separate entry of the source. Structures can show the parent of a compound that is named as a salt.

How the values were obtained:
zebrafish embryos = test: Whole-mount in situ hybridization with myoD riboprobe in chemical-treated zebrafish embryos; format: in vivo; parameters: key to myoD expression: Level 1: decreased myoD staining at different levels, which are indicated in FIG. 9A; Level 2: decreased myoD staining at different levels, which are indicated in FIG. 9A; Level 3: decreased myoD staining at different levels, which are indicated in FIG. 9A; Level 4: decreased myoD staining at different levels, which are indicated in FIG. 9A; settings: for myoD expression: embryos treated at the sphere stage, assayed at the 6-somite stage, CHB library chemicals diluted 300-fold, compared with DMSO; for perturbation of muscle development in vivo (myoD riboprobe): treated at the sphere stage, 6-somite stage, diluted 300-fold
Method: FIGS. 9A-9C show the chemical genetics screens to identify modifiers of skeletal muscle development (related to FIG. 2) FIG. 9A, Embryos were treated with hits at the sphere stage. Once the control embryos reached the 6-somite stage, they were collected for whole-mount in situ hybridization with the myoD riboprobe. […] Flat mounted embryos stained with the myoD riboprobe at the 6-somite stage are shown with anterior to the left. Embryos were treated with (±)-6-Chloro-PB hydrobromide, LY-294002, 1-ACYL-PAF, or ATRA. All chemicals were from the CHB library and were diluted 300-fold. The level of myoD reduction was determined by comparing the intensity of myoD expression in these embryos with that in control embryos treated with DMSO. FIG. 9B, myf5-GFP; mylz2-mCherry embryos were collected at the oblong stage and disassociated. The resulting blastomere cells were aliquoted into a 96-well plate with pre-added chemicals. The culture medium contained 10 ng/ml bFGF to promote muscle development. Cells were treated with 50 μM tyrphostin AG 879, 50 μM tyrphostin AG 808, 50 μM tyrphostin AG 555, 50 μM PD 98059, 10 μM U0126, 10 μM LY-294002, 10 μM wortmannin, or 20 μM rapamycin. Cells were imaged after 2 days by the Celigo cytometer for GFP, mCherry, and bright-field signals. FIG. 9C, 1-cell-stage myf5-GFP; mylz2-mCherry embryos were injected with 250 pg fgf8-MO and 250 pg fgf24-MO and rescued by adding […] at the dome stage.
Whole mount in situ hybridizations were performed as previously described (Belting et al., 2001).

[1] = test system: zebrafish blastomere cells; test: Sensitized chemical screen in zebrafish blastomere cell culture in the absence of bFGF; format: cell-based
Description: (§1) FIGS. 2A-2C show the chemical genetic screens to identify modifiers of skeletal muscle development. FIG. 2A is a schematic of a high-throughput image-based chemical screening assay. Approximately 800 myf5-GFP; mylz2-mCherry double transgenic embryos were collected and disassociated at the oblong stage. The resulting blastomere cells were aliquoted into four 384-well plates with pre-added chemicals. We performed duplicates for each chemical to mitigate false positives. After 2 days, the 384-well plates were imaged using a Celigo cytometer. For each well, an image for each signal channel was captured. GFP and mCherry signals were determined by the Celigo cytometer's built-in software and confirmed by eye. […] Most of the hits could be grouped into three categories. […] The phenotype is presumptively due to inhibition of differentiation of muscle progenitors into mature muscle. […] This phenotype is presumptively due to the blocking of muscle progenitor commitment. […] Scale bars represent 250 μM. […] Scale bars represent 250 μM.
(§2) Four 384-well plates were coated with 0.1% gelatin. Chemicals from the CHB library were diluted 150 times with zESC medium containing 1 ng/ml bFGF and were aliquoted 30 μl per well. Males and females of the myf5-GFP; mylz2-mCherry transgenic line were set up overnight and kept separated until morning when they were mixed for mate. Approximately 800 oblong-stage embryos were washed three times with E3 embryo water and were treated with pronase to remove chorions. Dechorionated embryos were washed with E3 embryo water three times and collected into a 50 ml falcon tube with 25 ml zESC medium containing 1 ng/ml bFGF. Embryos were disassociated by shaking approximately 20 times and were filtered through a 70 μm nylon mesh filter. The resulting single cells were diluted to 60 ml with zESC medium containing 1 ng/ml bFGF and aliquoted 30 μl per well into the four 384-well plates with pre-added chemicals. The cells were cultured in a 28-degree incubator without CO2. Cells were imaged by a Celigo cytometer (Cyntellect) under channels of GFP, mCherry, and transmitted light. The images were analyzed by the built-in software and confirmed eye.
The strong muscle promoting effect of bFGF made it difficult to identify enhancers of skeletal muscle development in our original system. Only one out of 2,400 chemicals was identified to promote muscle development. To sensitize the system for identifying enhancers of skeletal muscle development, we repeated the screen in the absence of bFGF. […] Among the six hits were three GSKβ inhibitor (kenpaullone, SB415286, and SB216763), two calpain inhibitors (E-64-D and MDL28170) and one cAMP activator forskolin.

[2] = test system: human iPSCs (00409, 05400, and BJ)
Method: Cells were differentiated by generating EBs in suspension culture 7 days and then transferred to matrigel-coated plates for additional 29 days. During the suspension culture the cells received the differentiation medium STEMDiff Apel medium ([sequence] technologies) supplied with 10 ng/ml bFGF (Invitrogen), 0.5 μM BIO (Santa Cruz Biotechnologies) and 20 μM forskolin (Santa Cruz Biotechnologies). Two-three days after plating EBs, the medium was switched to DMEM complemented with 2% horse serum for the remaining differentiation.
Embryoid bodies (EBs) from BJ, 00409 or 05400 iPSCs were exposed for 7 days to a serum-free differentiation medium containing bFGF (10 ng/ml), BIO (0.5 μM) and forskolin (20 μM) (medium added at day 1, 3 and 5). […] After 7 days, we measured the expression of a panel of markers specific for ectoderm, endoderm or mesoderm to quantify differentiation outcomes.

[3] = test system: zebrafish blastomere cells; test: Culture of disassociated myf5-GFP; mylz2-mCherry blastomere cells in zESC medium (validation and pathway inhibitor tests); format: cell-based
Method: FIGS. 1A-1E show the chemical genetic screen to identify modifiers of skeletal muscle development. […] The yolk of the double transgenic embryo is mCherry positive, presumptively due to the maternal deposit of mCherry protein. mylz2-mCherry expression is not observed until 32 hpf. Its expression is first detected in anterior somites and then progressively spreads to posterior somites. […] Images were taken 48 hours after plating. Scale bars represent 250 μM. […] Blastomere cells from myf5-GFP; mylz2-mCherry embryos were cultured with or without bFGF and harvested at 24 hours. Results of bFGF treated cells are normalized to the expression of untreated cells. Error bars represent standard deviation (SD) from the triplicate quantitative RT-PCR reaction. All expressions are normalized to β-actin. […] Blastomere cells from myf5-GFP; mylz2-mCherry embryos were cultured with bFGF and harvested at 24 hours. Different populations were isolated by FACS. Results are normalized to the expression of cells of the double negative population. Error bars represent standard deviation (SD) from the triplicate quantitative RT-PCR reaction. All expressions are normalized to β-actin. […] 0.1% DMSO or 100 nM ATRA was added immediately. Images were taken 48 hours after plating. Scale bars represent 250 μM.
FIGS. 9A-9C show the chemical genetics screens to identify modifiers of skeletal muscle development (related to FIG. 2) FIG. 9A, Embryos were treated with hits at the sphere stage. Once the control embryos reached the 6-somite stage, they were collected for whole-mount in situ hybridization with the myoD riboprobe. […] Flat mounted embryos stained with the myoD riboprobe at the 6-somite stage are shown with anterior to the left. Embryos were treated with (±)-6-Chloro-PB hydrobromide, LY-294002, 1-ACYL-PAF, or ATRA. All chemicals were from the CHB library and were diluted 300-fold. The level of myoD reduction was determined by comparing the intensity of myoD expression in these embryos with that in control embryos treated with DMSO. […]

[4] = test system: zebrafish blastomere cells; test: High-throughput image-based chemical screen in myf5-GFP; mylz2-mCherry zebrafish blastomere cell culture with bFGF; settings: medium supplemented with bFGF, 384-well, Celigo cytometer
Description: as §1
Disassociated blastomere cells were grown in zESC medium, which is composed of 70% LDF medium and 30% RTS34st-conditioned medium. The LDF medium contains 50% Leibowitz's L-15 (Invitrogen), 35% DMEM (Invitrogen), and 15% Ham's F-12 (Invitrogen), supplemented with 0.18 g/l sodium bicarbonate, 15 mM HEPES (Invitrogen), 1% L-Glutamine (Invitrogen), 10 μg/ml ciprofloxacin (Sigma-Aldrich), 100 μg/ml piperacillin (Sigma-Aldrich), 10 μg/ml amphotericin B (Sigma-Aldrich), 10 nM sodium selenite (Sigma-Aldrich), 1% N2 (Invitrogen), and 2% B27 (Invitrogen). The RTS34st conditioned medium was prepared by incubating fresh medium (Leibowitz's L-15 plus 15% FBS) on a confluent culture of RTS34st cells for 3 days.
as §2
To enable a higher throughput analysis of candidate modifiers of skeletal myogenesis, the embryo culture system was adapted to a semi-automated chemical screening platform. myf5-GFP; mylz2-mCherry embryos were collected from double transgenic parents and disassociated at the oblong stage. […] After one day, the cells were automatically imaged and analyzed using a Celigo cytometer for GFP, mCherry, and bright-field signals, and image analysis was confirmed by visual inspection (FIG. 2A).

## NC(=O)c1ccc(-c2nc(-c3ccccn3)c(-c3ccc4c(c3)OCO4)[nH]2)cc1 [SB-431542]
Zebrafish embryos
  myoD expression: No change

## Cn1cc(C2=C(c3ccc(Cl)cc3Cl)C(=O)NC2=O)c2ccccc21 [SB216763]
[1]
  GFP and mCherry signals: increase the GFP and mCherry signals

## O=C1Nc2cc(Br)ccc2/C1=C1/Nc2ccccc2/C1=N\O [BIO, 6-Bromoindirubin-3′-oxime]
[2]
  toxicity compared with other GSK3β antagonists: lower toxicity

## Cl.Oc1cc2c(c(Cl)c1O)CCNCC2c1ccccc1 (racemic) [(±)-6-Chloro-PB hydrochloride]
Zebrafish embryos
  myoD expression: Level 1
  perturbation of muscle development in vivo (myoD riboprobe): verified to perturb muscle development in vivo

## CN(Cc1cnc2nc(N)nc(N)c2n1)c1ccc(C(=O)N[C@@H](CCC(=O)O)C(=O)O)cc1 [Methotrexate]
Zebrafish embryos
  myoD expression: No change

## O=C1Cc2c([nH]c3ccc(Br)cc23)-c2ccccc2N1 [kenpaullone, 9-bromopaullone]
[1]
  GFP and mCherry signals: increase the GFP and mCherry signals

## basic fibroblast growth factor [bFGF]
[3]; bFGF added to zESC medium
  GFP and mCherry expression of cultured blastomere cells: majority of cells became GFP and mCherry double positive
[3]; cultured with bFGF, harvested at 24 hours
  expression of other myogenic genes (myoD, mrf4, myog), quantitative RT-PCR: highly expressed

## CO[C@H]1C[C@@H]2CC[C@@H](C)[C@@](O)(O2)C(=O)C(=O)N2CCCC[C@H]2C(=O)O[C@H]([C@H](C)C[C@@H]2CC[C@@H](O)[C@H](OC)C2)CC(=O)[C@H](C)/C=C(\C)[C@@H](O)[C@@H](OC)C(=O)[C@H](C)C[C@H](C)/C=C/C=C/C=C/1C [Rapamycin]
Zebrafish embryos
  myoD expression: Level 2

## O=c1cc(N2CCOCC2)oc2c(-c3ccccc3)cccc12 [LY-294,002 hydrochloride]
Zebrafish embryos
  myoD expression: Level 2

## N#C/C(=C\c1c[nH]c2ccccc12)C(=O)c1ccc(O)c(O)c1 [Tyrphosfin AG 808]
Zebrafish embryos
  myoD expression: Level 1

## CCCNC(=O)[C@H]1O[C@@H]1C(=O)N[C@H](C(=O)N1CCC[C@H]1C(=O)OC)[C@@H](C)CC [CA-074-Me]
[4]
  change of myf5-GFP and mylz2-mCherry signals (hit category): only myf5-GFP expression

## CCOC(=O)[C@H]1O[C@@H]1C(=O)N[C@@H](CC(C)C)C(=O)NCCC(C)C [E-64-D]
[1]
  GFP and mCherry signals: increase the GFP and mCherry signals

## MDL28170
[1]
  GFP and mCherry signals: increase the GFP and mCherry signals

## COCC(=O)O[C@]1(CCN(C)CCCc2nc3ccccc3[nH]2)CCc2cc(F)ccc2[C@@H]1C(C)C.Cl.Cl [Miberfradil dihydrochloride]
Zebrafish embryos
  myoD expression: Level 2

## CC(C)(C)c1cc(/C=C(\C#N)C(N)=S)cc(C(C)(C)C)c1O [Tyrphostin AG 879]
[4]
  change of myf5-GFP and mylz2-mCherry signals (hit category): decreased amount of both fluorescent colors
Zebrafish embryos
  myoD expression: Toxic

## CCCC[N+]1(C)[C@@H]2C[C@@H](OC(=O)[C@H](CO)c3ccccc3)C[C@H]1[C@@H]1O[C@@H]12.[Br-] (single isomer, unassigned; (-)) [(-)-Scopolamine, n-Butyl-, bromide]
Zebrafish embryos
  myoD expression: Level 1

## CC1=C(/C=C/C(C)=C/C=C/C(C)=C/C(=O)O)C(C)(C)CCC1 [ATRA, all-trans retinoic acid]
[3]; zESC medium with bFGF, 100 nM ATRA, images 48 hours after plating
  skeletal muscle development in vitro: blocked skeletal muscle development; also recorded: blocks muscle development in vitro
Zebrafish embryos
  myoD expression: Level 4
  perturbation of muscle development in vivo (myoD riboprobe): verified to perturb muscle development in vivo

## Clc1cnc(Oc2ccc(Oc3ncc(Cl)cc3Cl)cc2)c(Cl)c1 [TCPOBOP]
[4]
  change of myf5-GFP and mylz2-mCherry signals (hit category): only myf5-GFP expression

## O=C1NC(=O)C(c2ccccc2[N+](=O)[O-])=C1Nc1ccc(O)c(Cl)c1 [SB415286]
[4]
  change of myf5-GFP and mylz2-mCherry signals (hit category): increased expression of both markers
[1]
  GFP and mCherry signals: increase the GFP and mCherry signals

## C=C1C(=O)O[C@@H]2C[C@@H](C)[C@@H]3C=CC(=O)[C@@]3(C)[C@@H](O)[C@H]12 [Helenalin]
Zebrafish embryos
  myoD expression: Toxic

## Cl.NCCNC(=O)c1ncsc1-c1cccc(F)c1 [Ro 41-1049 hydrochloride]
[4]
  change of myf5-GFP and mylz2-mCherry signals (hit category): decreased amount of both fluorescent colors
Zebrafish embryos
  myoD expression: Level 4

## C[C@@H](NC(=O)/C(C#N)=C/c1ccc(O)c(O)c1)c1ccccc1 [Tyrphostin AG 527]
Zebrafish embryos
  myoD expression: No Change; also recorded: Level 1

## Cl.Cl.Cl.NCCCCNCCCN [Spermidine trihydrochloride]
Zebrafish embryos
  myoD expression: Level 1
